Values of other authors as cited in patent US12310973B2, “Administration and dosage of diaminophenothiazines” (WisTa Laboratories Ltd., priority 2016, dated 2025).

Key:
[1] = tested on: huntingtin derivative containing a polyglutamine stretch of 102 residues; details: tested at 0, 10 and 100 μM; zebrafish; cited from earlier work
[2] = tested on: TDP-43 aggregates in SH-SY5Y cells; details: 0.05 μM MT; cited from earlier work

Substance: methylthioninium [MT]
- Formation of aggregates of huntingtin derivative (polyglutamine stretch of 102 residues) [1]: prevented the formation of such aggregates in zebrafish in a dose dependent manner
- Reduction in number of TDP-43 aggregates [2]: 50%
